Measured values from PMC5232348, “Molecular and Functional Characterization of Three Odorant-Binding Protein from Periplaneta americana” (PLoS ONE, 2017).

Key:
[1] = target: PameOBP3 (Periplaneta americana, UniProt B6E9U9); assay: Binding of fluorescent probe 1-NPN to PameOBP3 (saturation, Scatchard); settings: read-out: dissociation constant of 1-NPN for PameOBP3
Description: (§1) Emission fluorescence spectra were measured on a Hitachi F-4500 fluorescence spectrophotometer following our previous studies. Firstly, dissociation constants of the PameOBPs for N-phenyl-1-naphtylamine (1-NPN) were calculated to determine the suitability of 1-NPN as a fluorescence reporter. After the determination of the reporter, the affinities of the PameOBPs for each ligand were measured using 2 μM 1-NPN as the fluorescent reporter and 0.25–2.5 μM or 2–40 μM as competitor, in at least three technical replicates. The binding data were analyzed following our previous studies.
(§2) To investigate the role of three PameOBPs in the detection of odorants, we firstly tested the binding affinity of PameOBPs to fluorescent probe 1-NPN. […] Saturation and linear Scatchard plots (Fig 5A) indicated single binding sites in the proteins with no allosteric effects. We were, therefore, able to use the fluorescence competitive binding assay to determine the binding affinities of these three PameOBPs to 87 odorants from apple, grape, peach, pear, the juice of these fruits, and beer.

[2] = target: PameOBP1 (Periplaneta americana, UniProt B6E9U7); assay: Binding of fluorescent probe 1-NPN to PameOBP1 (saturation, Scatchard); settings: read-out: dissociation constant of 1-NPN for PameOBP1
Description: as §1, §2

[3] = target: PameOBP2 (Periplaneta americana, UniProt B6E9U8); assay: Binding of fluorescent probe 1-NPN to PameOBP2 (saturation, Scatchard); settings: read-out: dissociation constant of 1-NPN for PameOBP2
Description: as §1, §2

Sequence of PameOBP1 (B6E9U7 entry or part of it): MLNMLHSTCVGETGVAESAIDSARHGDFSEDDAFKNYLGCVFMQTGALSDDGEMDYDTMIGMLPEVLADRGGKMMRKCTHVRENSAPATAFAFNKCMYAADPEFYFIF
Sequence of PameOBP3 (B6E9U9 entry or part of it): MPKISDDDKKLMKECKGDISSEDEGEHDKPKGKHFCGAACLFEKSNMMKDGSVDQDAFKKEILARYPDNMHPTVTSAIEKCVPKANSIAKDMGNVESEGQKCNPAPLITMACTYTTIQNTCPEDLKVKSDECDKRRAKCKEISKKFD
Sequence of PameOBP2 (B6E9U8 entry or part of it): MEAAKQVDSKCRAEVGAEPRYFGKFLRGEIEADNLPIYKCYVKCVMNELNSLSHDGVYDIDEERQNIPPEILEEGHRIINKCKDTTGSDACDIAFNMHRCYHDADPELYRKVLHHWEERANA

c1ccc(Nc2cccc3ccccc23)cc1 [1-NPN, N-phenyl-1-naphtylamine] was tested, and the Kd [1] was 24.9 µM, the Kd [2] was 20.5 µM and the Kd [3] was 8.04 µM.
